Data on 2 molecules can be found in US20220296637A1, “SODIUM THIOSULFATE GEL FOR PREVENTING OR REDUCING HEARING LOSS” (STICHTING HET NEDERLANDS KANKER INSTITUUT-ANTONI VAN …, priority 2019, published 2022).

The subject of data set [1] is cisplatin-induced hearing loss (CIHL). The settings on record: cited from earlier work; for patients in whom CIHL was seen: 61 patients treated with STS (intravenous), 64 with cisplatin alone, p=0.00022; for overall survival: children with disseminated disease, additional intravenous STS vs cisplatin alone, p=0.009.
The conditions of data set [2]: reported incidences vary widely amongst studies; cited from earlier work.
Data set [3] concerns cisplatin-induced hearing loss (CIHL). Conditions: cited from earlier work.
For data set [4] the following is noted: guinea pigs; cited from earlier work.
Data set [5] concerns cisplatin-induced hearing loss (CIHL). Description: Phase 1 trial of transtympanic STS gel: audiometry (pure tone averages) for efficacy against cisplatin-induced hearing loss. The class given is in vivo, human. Conditions: for Δ PTA 0.5-1-2 kHz (posttreatment − baseline) / Δ PTA 1-2-4 kHz (posttreatment − baseline) / Δ PTA 8-10-12.5 kHz (posttreatment − baseline): STS-treated ears; for difference in ΔPTA3 in favour of the untreated ear: last non-responder. As for the experimental part:
Arm A was a single-blind, placebo controlled, proof-of-concept study. A different application method was investigated in arm B, which was a non-blinded, non-placebo controlled, proof of concept arm. The ear to be treated with the transtympanic STS gel was assigned by randomisation in both arms. The study was performed at the Netherlands Cancer Institute in Amsterdam, the Netherlands. The protocol was approved by the institutional medical research ethics committee. The study is registered with the European Clinical Trials Database (EudraCT) (EudraCT: 2012-004653-80). […] Exclusion criteria were: known symptomatic brain or leptomeningeal metastases and relevant otological history (e.g. conductive hearing loss, vertigo). All patients gave written informed consent prior to start of study procedures. The ear to be treated with the transtympanic STS gel was assigned by randomisation in both arm A and arm B. Arm A concerned a single-blind study protocol in which the contralateral ear was treated with a placebo gel. Arm B was non-blinded and the contralateral ear was left untreated. The enrolment of patients was done by a treating physician. Randomisation was done via a randomisation program at the institutional trial centre. […] In arm B only the STS gel was prepared. Syringes with study medication were warmed up to body temperature (37° C.) for 30 minutes in an incubator ([…], Switzerland) to prevent hypo- or hypercaloric symptoms during or after injections. The syringe was connected to the (Braun, […]) needle via a 10 cm infusion line (BD Becton Dickenson connecta). […] To approach the eardrum in a perpendicular orientation. In arm A, the gels were administered through a […] grommet, which was placed for venting air to prevent barotrauma and/or pain while injecting. During this procedure we noticed there was backflow of the gel via the infusion needle backward into the external ear canal. Therefore, a different protocol for the transtympanic injection was chosen in arm B for the next 6 patients: the grommet was still placed in the anterior eardrum for ventilation of the middle ear, however, the STS gel was injected via the needle directly through the posterior part of the eardrum and indeed backflow into the external ear was not seen anymore. Topical anesthesia was applied using a few small (3×3 mm) gauzes with xylocaine 10% (lidocaine 100 mg/ml, AstraZeneca, United Kingdom) applied on the eardrum before placement of the grommet and the injections. During the injections, the patient was lying in a hospital bed with the upper body positioned 30 degrees upwards. After administration of the gel the patients head was turned 45 degrees contralateral. […] The specific positioning of the patient was in our view needed to for improved and/or prolonged exposure of the STS gel to the round window of the middle ear. […] If concomitant chemotherapy or radiotherapy was to be administered, this was done as per local protocol. […] Standard audiometry including air conduction (AC) and bone conduction (BC) thresholds was performed in a sound proof booth using the Decos Audiology Workstation. […] Six evaluable patients per study arm were considered sufficient to reach proof of concept based on the intra-patient comparison and the expected audiometric difference between the STS-treated and untreated/placebo treated ears. […] To study whether there was a significant difference in CIHL over time ([…]) between the STS ears and the untreated ears, the […] with paired samples was used.

The conditions of data set [6]: in vivo; cited from earlier work.
Data set [7] concerns cisplatin-induced hearing loss. Conditions: transtympanic STS gel (0.5 M, 0.1 ml, 24 hours prior to cisplatin); 13 patients; 3 to 10 kHz; not significant; cited from earlier work.

On to `N.N.[Cl][Pt][Cl]` [Cisplatin, cis-diaminedichloroplatinum(II)], for which, in data set [1], the “patients in whom CIHL was seen” value is listed as 56% and the overall survival is recorded as 84%. Besides, the “occurrence of cisplatin-induced hearing loss in cisplatin-treated patients” value in data set [2] is 75-80%.

Regarding `O=S([O-])([O-])=S.[Na+].[Na+]` [STS, sodium thiosulfate], the “patients in whom CIHL was seen” value in data set [1] is reported as 29%. Further, the overall survival in data set [1] was 45%. Moreover, the “adverse events likely attributed to intravenous STS administration” value in data set [3] (children) was “tumour progression and grade 3 infection, neutropenia, electrolyte disorders and anaemia”. Also, in data set [3] (intravenous STS, 95% confidence interval 0.33-0.81), the “relative risk of CIHL” value was 52%. Further, the “reduction of the incidence of CIHL versus cisplatin alone” value in data set [3] (intravenous STS, 109 children, p=0.002) is reported as 48%. Besides, the “perilymph STS concentrations, transtympanic injections compared with intravenous infusion” value in data set [4] was “higher”. In addition, the “Δ PTA 0.5-1-2 kHz (posttreatment − baseline)” value in data set [5] (4 patients with ototoxicity who responded to STS-gel) was −0.4 dB HL; in data set [5] (all 12 patients, directly after last cisplatin cycle minus baseline) it was 2.1 dB HL. Besides, the “Δ PTA 1-2-4 kHz (posttreatment − baseline)” value is reported as −0.4 dB HL in data set [5] (4 responders) and 2.5 dB HL in data set [5] (all 12 patients). The “Δ PTA 8-10-12.5 kHz (posttreatment − baseline)” value stood at 6.8 dB SPL in data set [5] (4 responders) and 8.8 dB SPL in data set [5] (all 12 patients). The “occurrence of SNHL (ΔPTA3 ≥10 dB), STS-treated versus untreated ears” value in data set [5] (12 STS-treated ears vs 12 untreated ears, McNemar p=0.125) is recorded as “no statistically significant difference”. Also, the “ΔPTA3 (8-10-12.5 kHz), overall” value in data set [5] (all 12 patients, STS-treated ears (untreated ears 12.7 dB)) turned out to be 8.8 dB. In data set [5] (four non-responders, STS-treated ears (untreated ears 15.2 dB)), this molecule showed a ΔPTA3 of 14.3 dB. Further, in data set [5] (four responders, STS-treated ears (untreated ears 25.2 dB)), the “mean ΔPTA3” value was found to be 6.8 dB. In addition, the “difference in ΔPTA3 between STS-treated ears and untreated ears” value in data set [5] (four responders, in favour of STS-treated ear, range 11.7-33.3 dB) is listed as 18.4 dB. Moreover, the “difference in ΔPTA3 in favour of the untreated ear” value is 2.3 dB SPL in data set [5] (at follow-up audiometry) and 10.0 dB SPL in data set [5] (directly after treatment). The “difference in ΔPTA3 between ears” value in data set [5] (three of the four non-responders) is recorded as under 10 dB SPL. Also, the oral bio-availability entry in data set [6] was “poor”. The “averaged hearing loss less in STS-treated ears than in untreated ears” value in data set [7] is on record as 1.3 dB.
